Measurements: US9434743B2, “Indazole derivatives” (TAKEDA PHARMACEUTICAL COMPANY LIMITED, priority 2012, dated 2016)

Columns and labels:
[1] = target: T1, human MetAP2 enzyme (Homo sapiens, UniProt P50579); assay: MetAP2 enzyme assay, enzyme complexed with cobalt ions; settings: MetAP2 Co pIC50, MetAP2 enzyme complexed with cobalt ions; Met-AMC substrate at Km
Method: DNA encoding the full-length sequence of human MetAP2 enzyme is amplified by PCR and cloned into a pFastBac expression vector (Invitrogen). Recombinant baculovirus incorporating the MetAP2 construct is generated by transposition using the Bac-to-Bac system (Invitrogen). The expression of recombinant protein is carried out by infection of Spodoptera frugiperda Sf9 cells (Invitrogen) in 5 L Wave Bioreactors (Wave Biotech). Recombinant protein is isolated from cellular extracts by binding to an SP Hitrap Fast Flow or SP Sepharose (Sigma) column, and the protein is eluted using a NaCl gradient. Partially purified extracts of MetAP2 are further purified by an AKTA FPLC over a Superdex-200 column (GE). The purity of MetAP2 protein is determined on denaturing SDS-PAGE gel.
The results for each well are expressed as percent inhibition and calculated using the equation:

[2] = target: T1, human MetAP2 enzyme; assay: MetAP2 enzyme assay, enzyme complexed with manganese ions; settings: MetAP2 Mn pIC50, MetAP2 enzyme complexed with manganese ions; Met-AMC substrate at Km

T1 sequence (P50579 whole entry): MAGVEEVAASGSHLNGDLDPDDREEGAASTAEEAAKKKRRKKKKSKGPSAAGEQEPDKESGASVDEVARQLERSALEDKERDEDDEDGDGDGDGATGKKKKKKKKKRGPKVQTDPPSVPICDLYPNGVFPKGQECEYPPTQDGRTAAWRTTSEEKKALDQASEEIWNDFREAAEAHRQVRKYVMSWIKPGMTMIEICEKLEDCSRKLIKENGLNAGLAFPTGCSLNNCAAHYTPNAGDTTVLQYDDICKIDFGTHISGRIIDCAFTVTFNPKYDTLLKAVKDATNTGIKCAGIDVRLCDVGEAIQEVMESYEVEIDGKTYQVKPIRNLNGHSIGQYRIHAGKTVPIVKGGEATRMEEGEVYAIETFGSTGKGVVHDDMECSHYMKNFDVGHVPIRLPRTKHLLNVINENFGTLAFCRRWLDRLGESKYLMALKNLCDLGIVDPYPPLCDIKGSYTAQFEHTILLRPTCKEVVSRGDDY

| SMILES | IC50 [1] | IC50 [2] |
| --- | --- | --- |
| NC(=O)c1ccccc1-c1cc(C(F)(F)F)cc2[nH]ncc12 [Example 10, 2-(6-(trifluoromethyl)-1H-indazol-4-yl)benzamide] | 1260 nM | 31.6 nM |
| FC(F)(F)c1cc(-c2cc[nH]n2)c2cn[nH]c2c1 [Example 13, 4-(1H-pyrazol-3-yl)-6-(trifluoromethyl)-1H-indazole] | 398 nM | 10 nM |
| FC(F)(F)c1cc(-c2ccncc2)c2cn[nH]c2c1 [Example 14, 4-(pyridin-4-yl)-6-(trifluoromethyl)-1H-indazole] | 100 nM | 10 nM |
| FC(F)(F)c1cc(-c2cccnc2)c2cn[nH]c2c1 [Example 19, 4-(pyridin-3-yl)-6-(trifluoromethyl)-1H-indazole] | 63.1 nM | 3.16 nM |
| FC(F)(F)c1cc(-c2cn[nH]c2)c2cn[nH]c2c1 [Example 23, 4-(1H-pyrazol-4-yl)-6-(trifluoromethyl)-1H-indazole] | 100 nM | 6.31 nM |
| FC(F)(F)c1cc(-c2ccc3ccncc3c2)c2cn[nH]c2c1 [Example 26, 7-(6-(trifluoromethyl)-1H-indazol-4-yl)isoquinoline] | 63.1 nM | 12.6 nM |
| FC(F)(F)c1cc(-c2cccc3c2OCO3)c2cn[nH]c2c1 [Example 27, 4-(benzo[d][1,3]dioxol-4-yl)-6-(trifluoromethyl)-1H-indazole] | 126 nM | 15.8 nM |
| CC(C)CNC(=O)c1cccc(-c2cc(C(F)(F)F)cc3[nH]ncc23)c1 [Example 28, N-isobutyl-3-(6-(trifluoromethyl)-1H-indazol-4-yl)benzamide] | 158 nM | 25.1 nM |
| OCc1cncc(-c2cc(C(F)(F)F)cc3[nH]ncc23)c1 [Example 29, (5-(6-(trifluoromethyl)-1H-indazol-4-yl)pyridin-3-yl)methanol] | 79.4 nM | 6.31 nM |
| COc1ccncc1-c1cc(C(F)(F)F)cc2[nH]ncc12 [Example 30, 4-(4-methoxypyridin-3-yl)-6-(trifluoromethyl)-1H-indazole] | 79.4 nM | 25.1 nM |
| FC(F)(F)c1cc(-c2cccc3cccnc23)c2cn[nH]c2c1 [Example 31, 8-(6-(trifluoromethyl)-1H-indazol-4-yl)quinoline] | 200 nM | 15.8 nM |
| N#Cc1cccc(-c2cc(C(F)(F)F)cc3[nH]ncc23)c1 [Example 33, 3-(6-(trifluoromethyl)-1H-indazol-4-yl)benzonitrile] | 100 nM | 10 nM |
| O=C(NCc1ccccc1)c1cccc(-c2cc(C(F)(F)F)cc3[nH]ncc23)c1 [Example 34, N-benzyl-3-(6-(trifluoromethyl)-1H-indazol-4-yl)benzamide] | 316 nM | 31.6 nM |
| NC(=O)Cc1cccc(-c2cc(C(F)(F)F)cc3[nH]ncc23)c1 [Example 38, 2-(3-(6-(trifluoromethyl)-1H-indazol-4-yl)phenyl)acetamide] | 50.1 nM | 10 nM |
| COc1cncc(-c2cc(C(F)(F)F)cc3[nH]ncc23)c1 [Example 42, 4-(5-methoxypyridin-3-yl)-6-(trifluoromethyl)-1H-indazole] | 63.1 nM | 6.31 nM |
| FC(F)(F)c1cc(-c2cnn(Cc3ccncc3)c2)c2cn[nH]c2c1 [Example 43, 4-(1-(pyridin-4-ylmethyl)-1H-pyrazol-4-yl)-6-(trifluoromethyl)-1H-indazole] | 79.4 nM | 6.31 nM |
| CS(=O)(=O)Nc1ccccc1-c1cc(C(F)(F)F)cc2[nH]ncc12 [Example 44, N-(2-(6-(trifluoromethyl)-1H-indazol-4-yl)phenyl)methanesulfonamide] | 50.1 nM | 5.01 nM |
| CN(C)C(=O)c1ccccc1-c1cc(C(F)(F)F)cc2[nH]ncc12 [Example 47, N,N-dimethyl-2-(6-(trifluoromethyl)-1H-indazol-4-yl)benzamide] | 501 nM | 50.1 nM |
| Cc1c(-c2cc(C(F)(F)F)cc3[nH]ncc23)cnn1-c1ccccc1 [Example 71, 4-(5-methyl-1-phenyl-1H-pyrazol-4-yl)-6-(trifluoromethyl)-1H-indazole] | 100 nM |  |

Continued by falling IC50 [1], values first:

| IC50 [1] | IC50 [2] | SMILES |
| --- | --- | --- |
| 50.1 nM | 3.98 nM | Nc1ncc(-c2cc(C(F)(F)F)cc3[nH]ncc23)cn1 [Example 9, 5-(6-(trifluoromethyl)-1H-indazol-4-yl)pyrimidin-2-amine] |
| 50.1 nM | 7.94 nM | NS(=O)(=O)c1ccc(-c2cc(C(F)(F)F)cc3[nH]ncc23)cc1 [Example 25, 4-(6-(trifluoromethyl)-1H-indazol-4-yl)benzenesulfonamide] |
| 39.8 nM | 3.16 nM | OCc1cccc(-c2cc(C(F)(F)F)cc3[nH]ncc23)c1 [Example 8, (3-(6-(trifluoromethyl)-1H-indazol-4-yl)phenyl)methanol] |
| 39.8 nM | 3.16 nM | OCc1ccccc1-c1cc(C(F)(F)F)cc2[nH]ncc12 [Example 12, (2-(6-(trifluoromethyl)-1H-indazol-4-yl)phenyl)methanol] |
| 39.8 nM | 5.01 nM | Cc1n[nH]cc1-c1cc(C(F)(F)F)cc2[nH]ncc12 [Example 22, 4-(3-methyl-1H-pyrazol-4-yl)-6-(trifluoromethyl)-1H-indazole] |
| 39.8 nM | 20 nM | CCN(CC)C(=O)c1cccc(-c2cc(C(F)(F)F)cc3[nH]ncc23)c1 [Example 32, N,N-diethyl-3-(6-(trifluoromethyl)-1H-indazol-4-yl)benzamide] |
| 39.8 nM | 7.94 nM | Cc1nnc(-c2cccc(-c3cc(C(F)(F)F)cc4[nH]ncc34)c2)o1 [Example 37, 2-methyl-5-(3-(6-(trifluoromethyl)-1H-indazol-4-yl)phenyl)-1,3,4-oxadiazole] |
| 39.8 nM | 10 nM | Cc1nc(C)c(-c2cc(C(F)(F)F)cc3[nH]ncc23)s1 [Example 40, 2,4-dimethyl-5-(6-(trifluoromethyl)-1H-indazol-4-yl)thiazole] |
| 39.8 nM |  | Cc1c(-c2cc(C(F)(F)F)cc3[nH]ncc23)cnn1-c1ccccc1 [Example 70, 4-(5-methyl-1-phenyl-1H-pyrazol-4-yl)-6-(trifluoromethyl)-1H-indazole] |
| 31.6 nM | 3.16 nM | OCc1ccc(-c2cc(C(F)(F)F)cc3[nH]ncc23)cc1 [Example 11, (4-(6-(trifluoromethyl)-1H-indazol-4-yl)phenyl)methanol] |
| 31.6 nM | 5.01 nM | Nc1ccc(-c2cc(C(F)(F)F)cc3[nH]ncc23)cn1 [Example 16, 5-(6-(trifluoromethyl)-1H-indazol-4-yl)pyridin-2-amine] |
| 31.6 nM | 12.6 nM | Cn1ncc2ccc(-c3cc(C(F)(F)F)cc4[nH]ncc34)cc21 [Example 24, 1′-methyl-6-(trifluoromethyl)-1H,1′H-4,6′-biindazole] |
| 31.6 nM | 12.6 nM | Cc1nn(C)cc1-c1cc(C(F)(F)F)cc2[nH]ncc12 [Example 39, 4-(1,3-dimethyl-1H-pyrazol-4-yl)-6-(trifluoromethyl)-1H-indazole] |
| 25.1 nM | 6.31 nM | FC(F)(F)c1cc(-c2cnc3c(c2)OCCN3)c2cn[nH]c2c1 [Example 4, 7-(6-(trifluoromethyl)-1H-indazol-4-yl)-3,4-dihydro-2H-pyrido[3,2-b][1,4]oxazine] |
| 25.1 nM | 5.01 nM | NC(=O)c1ccc(-c2cc(C(F)(F)F)cc3[nH]ncc23)cc1 [Example 7, 4-(6-(trifluoromethyl)-1H-indazol-4-yl)benzamide] |
| 25.1 nM | 3.16 nM | NC(=O)c1cccc(-c2cc(C(F)(F)F)cc3[nH]ncc23)c1 [Example 18, 3-(6-(trifluoromethyl)-1H-indazol-4-yl)benzamide] |
| 25.1 nM | 7.94 nM | O=C(NC1CC1)c1ccc(-c2cc(C(F)(F)F)cc3[nH]ncc23)cc1 [Example 35, N-cyclopropyl-4-(6-(trifluoromethyl)-1H-indazol-4-yl)benzamide] |
| 25.1 nM | 6.31 nM | Cn1ncc2cc(-c3cc(C(F)(F)F)cc4[nH]ncc34)ccc21 [Example 36, 1′-methyl-6-(trifluoromethyl)-1H,1′H-4,5′-biindazole] |
| 25.1 nM | 6.31 nM | FC(F)(F)c1cc(-c2cnn3ccccc23)c2cn[nH]c2c1 [Example 41, 4-(pyrazolo[1,5-a]pyridin-3-yl)-6-(trifluoromethyl)-1H-indazole] |
| 25.1 nM |  | Cc1nn(C)c2cc(-c3cc(C(F)(F)F)cc4[nH]ncc34)ccc12 [Example 68, 1′,3′-dimethyl-6-(trifluoromethyl)-1H,1′H-4,6′-biindazole] |
| 20 nM | 7.94 nM | FC(F)(F)c1cc(-c2ccc3[nH]cnc3c2)c2cn[nH]c2c1 [Example 17, 4-(1H-benzo[d]imidazol-5-yl)-6-(trifluoromethyl)-1H-indazole] |
| 20 nM |  | Cc1nn(C)c2cc(-c3cc(C(F)(F)F)cc4[nH]ncc34)ccc12 [Example 67, 1′,3′-dimethyl-6-(trifluoromethyl)-1H,1′H-4,6′-biindazole] |
| 15.8 nM | 3.98 nM | Cc1cc(Cn2nc(C)c(-c3cc(C(F)(F)F)cc4[nH]ncc34)c2CO)on1 (single isomer, unassigned) [Example 412, (3-methyl-1-((3-methylisoxazol-5-yl)methyl)-4-(6-(trifluoromethyl)-1H-indazol-4-yl)-1H-pyrazol-5-yl)methanol] |
| 10 nM | 6.31 nM | Cn1cc2c(-c3cc(C(F)(F)F)cc4[nH]ncc34)cccc2n1 [Example 15, 2′-methyl-6-(trifluoromethyl)-1H,2′H-4,4′-biindazole] |
| 6.31 nM | 7.94 nM | Cc1cc(Cn2nc(CO)c(-c3cc(C(F)(F)F)cc4[nH]ncc34)c2C)on1 (single isomer, unassigned) [Example 411, (5-methyl-1-((3-methylisoxazol-5-yl)methyl)-4-(6-(trifluoromethyl)-1H-indazol-4-yl)-1H-pyrazol-3-yl)methanol] |
